Square brackets hold non-standard residues; d marks the D form. Peptide text beside a SMILES is read from it. PEG24 = NCCOCCOCCOCCOCCOCCOCCOCCOCCOCCOCCOCCOCCOCCOCCOCCOCCOCCOCCOCCOCCOCCOCCOCCOCCC(=O)O; Sar = CNCC(=O)O
Experiment: Solubility in water
Assay type: physicochemical
Details: Table 7, PEGylated and Sar/Ala substitution peptides

Row | Structure (SMILES) | Solubility in water
1 | CC[C@H](C)[C@H](N)C(=O)N[C@@H](C)C(=O)N[C@@H](CC(C)C)C(=O)N[C@H](C(=O)N[C@@H](CC(C)C)C(=O)N[C@@H](C)C(=O)N1CCC[C@H]1C(=O)N[C@H](C(=O)N[C@@H](CS)C(=O)N[C@@H](CS)C(=O)N[C@@H](CCC(N)=O)C(=O)N[C@@H](C)C(=O)N[C@@H](CCCNC(=N)N)C(=O)N[C@@H](C)C(=O)N[C@@H](C)C(=O)NCCOCCOCCOCCOCCOCCOCCOCCOCCOCCOCCOCCOCCOCCOCCOCCOCCOCCOCCOCCOCCOCCOCCOCCOCCC(=O)O)[C@@H](C)CC)[C@@H](C)CC [E6AE12A-dPEG24] (H-IALILAPICCQARAA[PEG24]-OH) | Yes
2 | CC[C@H](C)[C@H](N)C(=O)N[C@@H](C)C(=O)N[C@@H](CC(C)C)C(=O)N[C@H](C(=O)N[C@@H](CC(C)C)C(=O)N[C@@H](CCC(=O)O)C(=O)N1CCC[C@H]1C(=O)N[C@H](C(=O)N[C@@H](CS)C(=O)N[C@@H](CS)C(=O)N[C@@H](CCC(N)=O)C(=O)N[C@@H](CCC(=O)O)C(=O)N[C@@H](CCCNC(=N)N)C(=O)N(C)CC(=O)N[C@@H](C)C(=O)NCCOCCOCCOCCOCCOCCOCCOCCOCCOCCOCCOCCOCCOCCOCCOCCOCCOCCOCCOCCOCCOCCOCCOCCOCCC(=O)O)[C@@H](C)CC)[C@@H](C)CC [PA-A14Sar-dPEG24] | Yes
3 | CC[C@H](C)[C@H](N)C(=O)N[C@@H](C)C(=O)N[C@@H](CC(C)C)C(=O)N[C@H](C(=O)N[C@@H](CC(C)C)C(=O)N[C@@H](CCC(=O)O)C(=O)N1CCC[C@H]1C(=O)N[C@H](C(=O)N(C)CC(=O)N[C@@H](C)C(=O)N[C@@H](CCC(N)=O)C(=O)N[C@@H](CCC(=O)O)C(=O)N[C@@H](CCCNC(=N)N)C(=O)N[C@@H](C)C(=O)N[C@@H](C)C(=O)O)[C@@H](C)CC)[C@@H](C)CC [PA-C9SarC10A] (H-IALILEPI[Sar]AQERAA-OH) | Yes
4 | CC[C@H](C)[C@H](N)C(=O)N[C@@H](C)C(=O)N[C@@H](CC(C)C)C(=O)N[C@H](C(=O)N[C@@H](CC(C)C)C(=O)N[C@@H](CCC(=O)O)C(=O)N1CCC[C@H]1C(=O)N[C@H](C(=O)N(C)CC(=O)N[C@@H](CCC(N)=O)C(=O)N[C@@H](CCC(=O)O)C(=O)N[C@@H](CCCNC(=N)N)C(=O)N[C@@H](C)C(=O)N[C@@H](C)C(=O)O)[C@@H](C)CC)[C@@H](C)CC [PA-C9SarD10] (H-IALILEPI[Sar]QERAA-OH) | Yes
5 | CC[C@H](C)[C@H](N)C(=O)N[C@@H](C)C(=O)N[C@@H](CC(C)C)C(=O)N[C@H](C(=O)N[C@@H](CC(C)C)C(=O)N(C)CC(=O)N1CCC[C@H]1C(=O)N[C@H](C(=O)N[C@@H](CS)C(=O)N[C@@H](CS)C(=O)N[C@@H](CCC(N)=O)C(=O)N[C@@H](CCC(=O)O)C(=O)N[C@@H](CCCNC(=N)N)C(=O)N[C@@H](C)C(=O)N[C@@H](C)C(=O)NCCOCCOCCOCCOCCOCCOCCOCCOCCOCCOCCOCCOCCOCCOCCOCCOCCOCCOCCOCCOCCOCCOCCOCCOCCC(=O)O)[C@@H](C)CC)[C@@H](C)CC [PA-E6Sar-dPEG24] | Yes
6 | CC[C@H](C)[C@H](N)C(=O)N[C@@H](C)C(=O)N[C@@H](CC(C)C)C(=O)N[C@H](C(=O)N[C@@H](CC(C)C)C(=O)N[C@@H](CCC(=O)O)C(=O)N(C)CC(=O)N[C@H](C(=O)N(C)CC(=O)N[C@@H](CS)C(=O)N[C@@H](CCC(N)=O)C(=O)N[C@@H](CCC(=O)O)C(=O)N[C@@H](CCCNC(=N)N)C(=O)N[C@@H](C)C(=O)N[C@@H](C)C(=O)O)[C@@H](C)CC)[C@@H](C)CC [PA-P7SarC9Sar, IALILE(Sar)I(Sar)CQERAA] (H-IALILE[Sar]I[Sar]CQERAA-OH) | Yes
7 | CC[C@H](C)[C@H](N)C(=O)N[C@@H](C)C(=O)N[C@@H](CC(C)C)C(=O)N[C@H](C(=O)N[C@@H](CC(C)C)C(=O)N[C@@H](CCC(=O)O)C(=O)N1CCC[C@H]1C(=O)N[C@H](C(=O)N[C@@H](CS)C(=O)N[C@@H](CS)C(=O)N(C)CC(=O)N[C@@H](CCC(=O)O)C(=O)N[C@@H](CCCNC(=N)N)C(=O)N[C@@H](C)C(=O)N[C@@H](C)C(=O)NCCOCCOCCOCCOCCOCCOCCOCCOCCOCCOCCOCCOCCOCCOCCOCCOCCOCCOCCOCCOCCOCCOCCOCCOCCC(=O)O)[C@@H](C)CC)[C@@H](C)CC [PA-Q11Sar-dPEG24] | Yes

— patent publication US12297235B2, “Synthetic peptide compounds and methods of use” (REALTA HOLDINGS, LLC, priority 2015, dated 2025)
